Values quoted from earlier work as cited in patent US20070066602A1, “Process for Making Olanzapine Form I” (priority 2005, published 2007).

What was measured:
[1] = at pH 6.8; free base, crystalline solid

Compound | solubility in water (qualitative) | solubility [1]
Cc1cc2c(s1)Nc1ccccc1N=C2N1CCN(C)CC1.O=C(O)c1ccccc1 [Olanzapine benzoate] | sparingly soluble in water | –
Cc1cc2c(s1)Nc1ccccc1N=C2N1CCN(C)CC1 [olanzapine, Olanzapine] | insoluble in water | about 0.02 mg/ml
